Experimental data: patent publication US20240301409A1, “Chemically Modified Small Activating RNA” (RACTIGEN THERAPEUTICS, priority 2021, published 2024)

Key:
p21 gene = test: p21 mRNA expression by RT-qPCR in T24 cells; type: cell-based, human; details: 10 nM
Method: Ku-7-LG and T24 cells were transfected with the indicated saRNA at a final concentration of 10 nM for 3 days. After transfection, the RNA was extracted with the Qiagen RNeasy kit. After reverse transcription, the ABI 7500 fast real-time PCR system was used for qPCR amplification. The GAPDH gene was amplified as an internal reference. […] Dashed line indicates duplex Rag1-40 with no chemical modification in comparison, and the values above the line indicate stronger activity. The control was blank transfection without oligonucleotide. dsCon2 is transfected with a double-stranded scramble RNA. The value of the ordinate represents the mean±SD of 2 repeated treatments.
The control and dsCon2 were blank transfection and scramble dsRNA transfection, respectively. The values in the ordinate represent the mean±SD of 2 repeated treatments.
Human bladder cancer cells Ku-7-LG (ATCC), J82 (ATCC) and T24 (ATCC) were cultured in McCoy medium (Gibco) comprising 10% calf serum (Sigma-Aldrich) and 1% penicillin/Streptomycin (Gibco). Cells were cultured at 37° C. under 5% CO2. Ku-7-LG, J82 and T24 cells were plated into 12-well plates at 10×10^4 cells per well, transfected with the small RNA at a concentration of 10 nM (unless otherwise specified) for three days, using RNAiMax (Invitrogen, Carlsbad, CA) according to the manufacturer's instructions. Two replicate wells were set for each treatment.
After transfection, the medium was discarded and to each well 500 μl cell lysate was added and incubated at room temperature for 5 minutes. RNA was extracted with the Qiagen RNeasy kit, and after reverse transcription, qPCR analysis was performed on the ABI 7500 Fast Real-time PCR system (Applied Biosystems). Each sample was amplified in 3 replicate wells.
The PCR reaction conditions are: 95° C. for 30 seconds, 95° C. for 5 seconds, 60° C. for 30 seconds, and 40 cycles of amplification. The GAPDH gene was amplified as an internal reference at the same time. p21 was amplified with the p21F1/R1 primer pair, and the specific sequences of the amplification primers are shown in Table 1.
In order to calculate the expression value (Erel) of p21 (target gene) of a saRNA transfection sample relative to the control treatment, Formula 1 is used to input the Ct values of the target gene and the internal reference gene for calculation.
wherein, CtTm is the Ct value of the target gene from the control treatment sample; CtTs is the Ct value of the target gene from the saRNA treated sample; CtRm is the Ct value of the internal reference gene from the control treatment sample; and CtRs is the Ct value of the internal reference gene from the saRNA treated sample.
The main purpose of introducing chemical modifications to regulatory oligonucleotides of a gene is to improve their pharmaceutical properties, including enhancing in vivo stability and mitigating off-target effects (e.g., sequence-dependent targeting of unrelated genes, sequence-dependent or independent immune stimulation), while maintaining their gene regulatory capacity (gene knockdown or activation). To assess the effect of chemical modification on the RNAa activity of saRNA on the p21 gene, 10 nM unmodified (Rag1-40) and modified (Rag1-40-1 to Rag1-40-34) duplexes were transfected into Ku-7-LG and T24 cells, respectively. After 72 hours, the mRNA expression level of p21 was assessed by RT-qPCR. All duplexes induced p21 mRNA expression in all […] at least double that of the control.
In order to further evaluate the expression level of p21 mRNA after the different durations of treatment by the chemically modified saRNA duplexes, two saRNAs (RAG1-40-31 and RAG1-40-53) were randomly selected from the above chemically modified saRNA duplexes for detection. RAG1-40-31 and RAG1-40-53 were transfected into Ku-7-LG and T24 cells at a final concentration of 10 nM, for 1, 2, 3, 4, 7 and 9 days, respectively. Each treatment was set up in duplicate. […]

Ku-7-LG cells = test: Cell cycle detection by flow cytometry in Ku-7-LG cells; type: cell-based, human; details: 48 hours
Method: RAG1-40-31 and RAG1-40-53 were transfected into Ku-7-LG cells at the final concentrations of 0.1, 1, 10 and 50 nM, and the transfection duration was 48 hours. Two replicate wells were used for each treatment. After transfection, the cell cycle was analyzed by flow cytometry, and the collected data were analyzed by MotFit software.
After transfection, the supernatant was discarded to collect cells. To each well 500 μL PBS was added for one wash and then discarded. To each well 100 μL trypsin was further added. 900 μL medium was added to stop digestion before transferring to a 1.5 mL centrifuge tube. All the cells were collected through centrifugation (400 rcf, 5 min) and counted (2×10^5 cells/200 μL PBS). Cold 70% absolute ethanol was added before incubation overnight at 4° C. After washing twice with PBS, 200 μL Krishan buffer was added before incubation at 4° C. for 1 hour. After washing twice with PBS, the supernatant was discarded and 200 μL PBS was added for cell re-suspension, then the cells were transferred to a 96-well plate and analyzed by flow cytometer. The collected data were analyzed with MotFit software.
In order to study the mechanism of cellular proliferation suppression, change in cell cycle was analyzed using flow cytometry in this example. Randomly selected saRNAs RAG1-40-31 and RAG1-40-53 were transfected into Ku-7-LG cells at final concentrations of 0.1, 1, 10 and 50 nM, respectively, for 48 hours. Each treatment was set in duplicate. Cell cycle was detected and analyzed as described in the general protocol above.

[1] = test system: Rag1-40 target sequence in the 3′ UTR of firefly luciferase, COS-1 cells
Method: A 26 bp fragment comprising the target site of Rag1-40 was cloned in the antisense orientation into the 3′ UTR region of the firefly luciferase gene in a pmirGLO dual luciferase vector. Vector plasmids were co-transfected with the indicated saRNAs into COS-1 cells. Cells were lysed 48 hours after transfection, and the resulting lysates were assessed for luciferase activity. Data represent mean±SD of at least two independent experiments. Dashed line represents comparisons to blank control (top dashed line) and Rag1-40 (bottom dashed line). Values close to the top dashed line indicate no off-target effect.
A 26 bp fragment comprising the Rag1-40 target sequence was cloned in the antisense orientation into a multiple cloning site (MCS) of the 3′ untranslated region of firefly luciferase of the pmirGLO dual luciferase vector (Promega, Fitchburg, WI), to obtain pOff-Target plasmid. Following E. coli transformation and overnight incubation, plasmids for each construct were prepared by standard method. Each plasmid was transfected into COS-1 monkey kidney epithelial cells using Lipofectamine 3000 (Invitrogen, Carlsbad, CA). Subsequently, saRNA was transfected using RNAiMAX. After 24 hours of incubation, COS-1 cells were lysed with 1× lysis buffer, and luciferase activity was measured using dual luciferase reporter gene assay system (Promega, WI, USA) following manufacturer's instructions.
To assess the off-target effects of unmodified and modified saRNAs, a sequence complementary to the sense oligonucleotide strand of Rag1-40 was cloned into the 3′UTR region of the luciferase gene in a pmirGLO dual luciferase vector. The vector plasmid was co-transfected with the saRNA into COS-1 cells. Cells were lysed 48 hours after transfection and the resulting lysates were assessed for luciferase activity.

RAG1-40-31: saRNA duplex: sense fCfCAACUCAUUCUCCAAG*U*C (SEQ ID NO 16); antisense U*A*fCfUfUGGAGAAfUGAGfUfUGG*fC*A (SEQ ID NO 12) (sense CCAACUCAUUCUCCAAGUC; antisense UACUUGGAGAAUGAGUUGGCA; 2'-F and phosphorothioate modifications; modified_base (1)..(2) (1,2)=2′-fluoro; modified_base (17)..(19) (17,18,19)=phosphorothioate (PS) backbone modification; modified_base (2)..(21) (2,3,19,20,21)=phosphorothioate (PS) backbone modification; modified_base (3)..(20) (3,4,5,12,16,17,20)=2′-fluoro)
increase of expression level of p21 mRNA compared with the control group (p21 gene; 1 day): 2.1 fold
increase of expression level of p21 mRNA compared with the control group (p21 gene; 2 days): 3.7 fold
increase of expression level of p21 mRNA compared with the control group (p21 gene; 3 days): 4.7 fold
RNA activation activity (p21 mRNA), in words (p21 gene; 72 hours, compared with unmodified Rag1-40 unless worded otherwise): reduced activity
increase of expression level of p21 mRNA compared with the control group (p21 gene; 4 days): 3.3 fold
increase of expression level of p21 mRNA compared with the control group (p21 gene; 7 days): 1.2 fold
increase of expression level of p21 mRNA compared with the control group (p21 gene; 9 days): 1.3 fold
percentage of cells in DNA anaphase/mitosis (G2/M) (Ku-7-LG cells; 0.1 nM): 6%
percentage of cells in DNA replication phase (S phase) (Ku-7-LG cells; 0.1 nM): 32%
percentage of cells in prophase of DNA synthesis (G0/G1) (Ku-7-LG cells; 0.1 nM): 62%
percentage of cells in DNA anaphase/mitosis (G2/M) (Ku-7-LG cells; 1 nM): 9%
percentage of cells in DNA replication phase (S phase) (Ku-7-LG cells; 1 nM): 22%
percentage of cells in prophase of DNA synthesis (G0/G1) (Ku-7-LG cells; 1 nM): 69%
percentage of cells in DNA anaphase/mitosis (G2/M) (Ku-7-LG cells; 10 nM): 8%
percentage of cells in DNA replication phase (S phase) (Ku-7-LG cells; 10 nM): 11%
percentage of cells in prophase of DNA synthesis (G0/G1) (Ku-7-LG cells; 10 nM): 81%
percentage of cells in DNA anaphase/mitosis (G2/M) (Ku-7-LG cells; 50 nM): 13%
percentage of cells in DNA replication phase (S phase) (Ku-7-LG cells; 50 nM): 6%
percentage of cells in prophase of DNA synthesis (G0/G1) (Ku-7-LG cells; 50 nM): 81%
off-target effect compared to unmodified Rag1-40, in words [1]: mitigated or similar off-target effects
